The test system of one series is hEPO. Nature of the series: hEPO in the serum of mice administered hEPO mRNA-loaded lipid nanoparticles (ELISA). Particulars: Example 29, Fig. 8, 6, 24, and 48 hours after administration, N = 3. It is filed as in vivo. As to the method: Subsequently, each hEPO mRNA-loaded lipid nanoparticle was administered to mice, and blood samples were collected from the tail vein at 6, 24, and 48 hours after administration (N = 3). The collected blood was allowed to stand at room temperature for 90 minutes, followed by centrifugation at 25°C, 1,000 x g for 15 minutes. The supernatant was collected to obtain serum. The hEPO activity in the serum was measured using a commercially available ELISA kit (Human EPO ELISA Kit, Invitrogen). Calibration samples were prepared by serial dilution from 100 mIU/mL to obtain solutions of […], each in a volume of 450 µL. Serum samples were diluted 10- to 10,000-fold to fall within the calibration range. A volume of 100 µL of each calibration sample and serum sample was applied to the plate, followed by the addition of […] of Biotin-Conjugate and incubation at 18 to 25°C for 1 hour. The wells were washed six times, and 100 µL of Streptavidin-HRP was added to each well and incubated at 18 to 25°C for 15 minutes. After another six washes, 100 µL of TMB Substrate Solution was added to each well, and the plate was shielded from light using aluminum foil and incubated at 18 to 25°C for 10 minutes. Finally, 100 µL of Stop Solution was added, and absorbance at 450 nm was measured using a spectrofluorometer (Varioskan Lux, Thermo Fisher Scientific).
Background: In an ELISA, binding on a coated surface is turned into a signal by an enzyme label.

Series [1] in a line: Apparent pKa of lipid nanoparticles (TNS).
Protocol: The apparent pKa of the lipid nanoparticles was measured using p-toluenesulfonic acid (TNS). First, TNS (final concentration: 0.75 µM) and lipid nanoparticles (final concentration: 30 µM) were mixed in a buffer (200 mL) adjusted to each pH (pH 3.5 to 9.5). As the buffer, 20 mM citrate buffer, 20 mM sodium phosphate buffer, or 20 mM Tris-HCl buffer containing 130 mM NaCl was used. The fluorescence intensity of the prepared mixture was measured using a fluorescence spectrophotometer (Varioskan Lux, manufactured by Thermo Fisher Scientific) with the settings of λex=321 nm and λem=447 nm. Among the measured values, the highest value and the lowest value were set as 100% and 0% ionization degrees, respectively, and the pH showing a 50% ionization degree was calculated as the apparent pKa. The content ratio (%) of cationically charged pH-sensitive cationic lipid was calculated using the Henderson-Hasselbalch equation.
The test system of another series is transthyretin (TTR). Put plainly: TTR-targeted genome editing in mice, serum TTR (ELISA). The class given is in vivo, Balb/c mice. Particulars: for TTR knockout activity: serum TTR one week after administration, N = 3. Here is the method: Specifically, an RNA solution was first prepared to contain Cas9-mRNA (TriLink, SmoU-modified) and gRNA targeting transthyretin (TTR) at a mass ratio of 1:2 (N/P = 6.0). Using this RNA solution, in the same manner as Example 27, lipid nanoparticles encapsulating Cas9-mRNA and TTR-gRNA (SEQ ID NO: 1) and having a composition of TxT/DSPC/chol/PEG-DMG = 50/3/47/1.5 (mol%) were prepared (lipid nanoparticles for TTR-targeted genome editing). […]
Subsequently, each of the prepared lipid nanoparticles for TTR-targeted genome editing was administered via tail vein injection to female Balb/c mice (4 weeks old) at a dose of 1.5 mg Cas9 mRNA/kg. […] The collected blood was allowed to stand at room temperature for 1 hour, followed by centrifugation at 25°C, 1,000 × g for 15 minutes. The supernatant was collected to obtain serum. The TTR concentration in the serum was measured using a commercially available ELISA kit (Prealbumin ELISA Kit Mouse, Aviva Systems Biology). Calibration samples were prepared by serial dilution from 500 ng/mL to obtain solutions of 250, 125, 62.5, 31.25, and 15.63 ng/mL, each in a volume of 300 µL. Serum samples were diluted 10,000-fold. A volume of 100 µL of each calibration sample and serum sample was applied to the plate and incubated at 25°C for 30 minutes. The wells were washed four times, and 100 µL of Enzyme-Antibody Conjugate was added to each well. The plate was shielded from light using aluminum foil and incubated at 25°C for 20 minutes. After another four washes, 100 µL of TMB Substrate Solution (Aviva Systems Biology) was added to each well, and the plate was shielded from light using aluminum foil and incubated at 25°C for 10 minutes. Finally, 100 µL of Stop Solution (Aviva Systems Biology) was added, and absorbance at 450 nm was measured using a spectrofluorometer (Varioskan Lux, Thermo Fisher Scientific).
Subsequently, the lipid nanoparticles for TTR-targeted genome editing were administered to mice and serum TTR levels (µg/mL) were measured (N = 3) in the same manner as in Example 32, except that a dose of Cas9-mRNA was adjusted to 0.1, 0.3, and 1.0 mg/kg. In the figure, "NT" indicates the measurement result of serum from mice that were not administered lipid nanoparticles.

The next series relates to various tissues. Nature of the series: Fluc activity in various tissues of mice administered Fluc mRNA-loaded lipid nanoparticles. It is filed as in vivo, BALB/c mice. Particulars: Example 23, Figs. 2B to 2E; TxT-5-5A16/DSPC/chol/PEG-DMG=50/X/50-X/1.5 (mol%); 0.1 mg mRNA/kg; six hours. Here is the method:
Lipid nanoparticles were administered to mice by intravenous injection into the tail vein using a 27G needle. Unless otherwise specified, BALB/c mice (4 to 5 weeks old, female) were used.
First, BALB/c mice (female, 4 weeks old) were intravenously injected with lipid nanoparticles encapsulating Fluc mRNA (Fluc mRNA-loaded lipid nanoparticles) at a dose of 0.1 mg mRNA/kg. Six hours after intravenous injection, the mice were euthanized, each tissue was collected, frozen in liquid nitrogen, and stored at -80°C. The tissues were homogenized in passive lysis buffer (manufactured by Promega) using a bead-type cell disruptor (Micro Smash MS-100R, manufactured by TOMY Seiko). Tissue debris was removed by centrifugation, and the supernatant was collected. Fluc activity in the supernatant was measured using the Luciferase Assay System (E1500, manufactured by Promega) according to the manufacturer's protocol. Luminescence was measured using a luminometer (Luminescencer-PSN, manufactured by ATTO). Protein concentration was determined using a commercially available assay kit (BCA Protein Assay Kit, manufactured by Pierce). Fluc activity was expressed as relative light units (RLU) per mg of protein. […]

Setting [2] is: Table 1, apparent pKa of Fluc mRNA-loaded lipid nanoparticles, TxT/DSPC/chol/PEG-DMG=50/15/35/1.5 (mol%).
The mark [3] stands for this setting: Table 3, Fluc mRNA-loaded lipid nanoparticles, TxT/DSPC/chol/PEG-DMG=50/3/47/1.5 (mol%).
The mark [4] stands for this setting: Example 32, Fig. 11, 1.5 mg Cas9 mRNA/kg tail vein.

Turning to `CCCCCCCN(CCCCCCC)C(=O)CCCC(=O)OCC(COC(=O)CCCC(=O)N(CCCCCCC)CCCCCCC)(COC(=O)CCCC(=O)N(CCCCCCC)CCCCCCC)NC(=O)CCN1CCCCC1` [TxT-5-5A14, 2-(((5-(diheptylamino)-5-oxopentanoyl)oxy)methyl)-2-(3-(piperidin-1-yl)propanamido)propane-1,3-diyl bis(5-(diheptylamino)-5-oxopentanoate)], the “hEPO concentrations in serum compared to lipid nanoparticles comprising SM-102” value in the series with hEPO was “clearly higher hEPO concentrations”. Besides, the pKa – broadly, the negative logarithm of the acid dissociation constant – in series [1] (setting [2]) came out at 4.99; in series [1] (setting [3]), 6.46; in series [1] (Table 4, Fluc mRNA-loaded lipid nanoparticles, TxT-5-5A14/DSPC/chol/PEG-DMG=50/3/47/1.5, SM-102, ALC-0315 or MC3/DSPC/chol/PEG-DMG=50/10/40/1.5 (mol%)), 6.53. Besides, the TTR knockout activity entry with transthyretin (TTR) (setting [4]) is recorded as “exceeding 85%”; in the series with transthyretin (TTR) (Example 33, Fig. 12, dose of 0.3 mg RNA/kg), “no less than 60%”. In the series on transthyretin (TTR) (Example 33, Fig. 12, 0.1, 0.3, and 1.0 mg/kg), the “TTR knockout efficiency versus dose” value is reported as “dose-dependent increase in TTR knockout efficiency”.

Turning to `CCCCCCCCN(CCCCCCCC)C(=O)CCCC(=O)OCC(COC(=O)CCCC(=O)N(CCCCCCCC)CCCCCCCC)(COC(=O)CCCC(=O)N(CCCCCCCC)CCCCCCCC)NC(=O)CCN1CCCCC1` [TxT-5-5A16, 2-(((5-(dioctylamino)-5-oxopentanoyl)oxy)methyl)-2-(3-(piperidin-1-yl)propanamido)propane-1,3-diyl bis(5-(dioctylamino)-5-oxopentanoate)], the pKa in series [1] (setting [2]) was determined as 6.27; in series [1] (Table 2, Fluc mRNA-loaded lipid nanoparticles, TxT-5-5A16/DSPC/chol/PEG-DMG=50/X/50-X/1.5 (mol%), DSPC concentration 3 mol %), 6.28; in series [1] (Table 2, Fluc mRNA-loaded lipid nanoparticles, TxT-5-5A16/DSPC/chol/PEG-DMG=50/X/50-X/1.5 (mol%), DSPC concentration 6 mol %), 5.88; in series [1] (Table 2, Fluc mRNA-loaded lipid nanoparticles, TxT-5-5A16/DSPC/chol/PEG-DMG=50/X/50-X/1.5 (mol%), DSPC concentration 9 mol %) it was 5.41; in series [1] (Table 2, Fluc mRNA-loaded lipid nanoparticles, TxT-5-5A16/DSPC/chol/PEG-DMG=50/X/50-X/1.5 (mol%), DSPC concentration 12 mol %), 6.24; in series [1] (Table 2, Fluc mRNA-loaded lipid nanoparticles, TxT-5-5A16/DSPC/chol/PEG-DMG=50/X/50-X/1.5 (mol%), DSPC concentration 15 mol %) it was 6.36. In series [1] (setting [3]), the pKa worked out at 6.28. The “Effect of DSPC content on Fluc activity in the spleen, kidney, lung, and heart” value in the series with various tissues is given as “no effect of DSPC content on Fluc activity was observed”.

As for `CCCCCCC(CCCC)CNC(=O)CCCC(=O)OCC(COC(=O)CCCC(=O)NCC(CCCC)CCCCCC)(COC(=O)CCCC(=O)NCC(CCCC)CCCCCC)NC(=O)CCN1CCCCC1` (stereo not drawn) [TxT-5-5A12β, 2-(((5-((2-butyloctyl)amino)-5-oxopentanoyl)oxy)methyl)-2-(3-(piperidin-1-yl)propanamido)propane-1,3-diyl bis(5-((2-butyloctyl)amino)-5-oxopentanoate)], the “hEPO concentrations in serum compared to lipid nanoparticles comprising SM-102” value in the series on hEPO is listed as “clearly higher hEPO concentrations”. Also, the figures for the pKa in series [1] (setting [2]) and in series [1] (setting [3]) were 4.90 and 6.53, respectively. The TTR knockout activity entry with transthyretin (TTR) (setting [4]) is given as “exceeding 85%”.

For the origin of these results see EP4722195A1, “PH-SENSITIVE CATIONIC LIPID AND LIPID NANOPARTICLES” (National University Corporation Hokkaido University, priority 2023, dated 2024).
